What was measured:
[1] = test system: TNF-α (NF-κB pathway, THP-1 cells); test: TNF-α Assay (IC50); format: cell-based, human; details: 600 ng/mL LPS, 3 hours
Summary of the method: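 Supernatant TNF-α quantified by ELISA after 3 h stimulation with 600 ng/mL LPS at 37 °C, following 30 min compound preincubation. Cells: IFN-differentiated (25 ng/mL, 24 h) THP-1 macrophages, 40,000/well, serum-free. IC50 by sigmoidal fit of % inhibition, with TPCA-1 as 100% control.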

[2] = test system: NLRP3 inflammasome (IL-1β production in THP-1 cells); test: IL-1β TR-FRET Assay (percentage of inhibition at 300 nM, 6 μM or 10 μM); format: cell-based, human; details: LPS priming, ATP activation; for inhibition at 6 µM: THP-1, 6 μM, read-out: IL-1β inhibitory rate at 6 μM (%); for inhibition at 0.3 µM: THP-1, 300 nM, read-out: IL-1β inhibitory rate at 300 nM (%)
Summary of the method: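 Percent inhibition of IL-1β used DMSO wells as 0% and 3 μM MCC-950 wells as full inhibition, with supernatant read by HTRF. Beforehand, IFN-γ-differentiated (25 ng/mL, 24 h), LPS-primed (50 ng/mL, 24 h) THP-1 cells received compound 30 min before inflammasome activation by 20 mM ATP for 2 h.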

Compound | IC50 ([1]; Homo sapiens) | inhibition at 0.3 µM ([2]; Homo sapiens) | further results
COC1(c2nc3nn(-c4c(C)cc(C)cc4O)cc3c(=O)[nH]2)CCC1 [Example 35, 2-(2-hydroxy-4,6-dimethylphenyl)-6-(1-methoxycyclobutyl)-2,5-dihydro-4H-pyrazolo[3,4-d]pyrimidin-4-one] | > 30 µM | 96% | 
CCOc1nc2nn(-c3ccc(C)cc3O)c(CC)c2c(=O)[nH]1 [Example 140, 6-ethoxy-3-ethyl-2-(2-hydroxy-4-methylphenyl)-2,5-dihydro-4H-pyrazolo[3,4-d]pyrimidin-4-one] | > 30 µM | 93% | 
Cc1cc(C)c(-n2cc3c(=O)[nH]c(OCCN(C)C)nc3n2)c(O)c1 [Example 50, 6-[2-(dimethylamino)ethoxy]-2-(2-hydroxy-4,6-dimethylphenyl)-2,5-dihydro-4H-pyrazolo[3,4-d]pyrimidin-4-one] | > 30 µM | 101% | 
Cc1cc(C2CC2)cc(C)c1-n1cc2c(=O)[nH]c(C3CCCO3)nc2n1 (single isomer, unassigned) [Example 228, 2-(4-cyclopropyl-2,6-dimethylphenyl)-6-[(2S)-oxolan-2-yl]-2,5-dihydro-4H-pyrazolo[3,4-d]pyrimidin-4-one or 2-(4-cyclopropyl-2,6-dimethylphenyl)-6-[(2R)-oxolan-2-yl]-2,5-dihydro-4H-pyrazolo[3,4-d]pyrimidin-4-one (HPLC Method A: tR2)] |  |  | IC50 [1]: > 30 µM; IL-1β inhibitory rate at 300 nM (%) ([2]; 300 nM, 0.3 µM): 79%
CCOc1nc2nn(-c3c(Br)cc(OC(F)F)cc3C(F)F)cc2c(=O)[nH]1 [Example 184, 2-[2-bromo-4-(difluoromethoxy)-6-(difluoromethyl)phenyl]-6-ethoxy-2,5-dihydro-4H-pyrazolo[3,4-d]pyrimidin-4-one] | > 30 µM | 94% | 
CCOc1nc2nn(-c3ccc(C4CC4)cn3)cc2c(=O)[nH]1 [Example 130, 2-(5-cyclopropylpyridin-2-yl)-6-ethoxy-2,5-dihydro-4H-pyrazolo[3,4-d]pyrimidin-4-one] | > 30 µM |  | inhibition at 10 µM ([2]; Homo sapiens, THP-1, 10 μM, read-out: IL-1β inhibitory rate at 10 μM (%)): 37%
COC(C)c1nc2nn(-c3c(C)cc(C)cc3O)cc2c(=O)[nH]1 (stereo not shown) [Example 52, 2-(2-hydroxy-4,6-dimethylphenyl)-6-(1-methoxyethyl)-2,5-dihydro-4H-pyrazolo[3,4-d]pyrimidin-4-one] | > 30 µM | 95% | 
CCOc1nc2nn(-c3c(C)cc(OC)cc3F)cc2c(=O)[nH]1 [Example 121, 6-ethoxy-2-(2-fluoro-4-methoxy-6-methylphenyl)-2,5-dihydro-4H-pyrazolo[3,4-d]pyrimidin-4-one] | > 30 µM | 97% | 
Cc1cc(C)c(-n2cc3c(=O)[nH]c(C(C)C)nc3n2)c(O)c1 [Example 10, 2-(2-hydroxy-4,6-dimethylphenyl)-6-(propan-2-yl)-2,5-dihydro-4H-pyrazolo[3,4-d]pyrimidin-4-one] | > 30 µM | 98% | 
Cc1cc(C)c(-n2cc3c(=O)[nH]c(-c4ccccc4F)nc3n2)c(O)c1 [Example 20, 6-(2-fluorophenyl)-2-(2-hydroxy-4,6-dimethylphenyl)-2,5-dihydro-4H-pyrazolo[3,4-d]pyrimidin-4-one] | > 30 µM | 100% | 
Cc1cc(C)c(-n2cc3c(=O)[nH]c(-c4cnccn4)nc3n2)c(O)c1 [Example 61, 2-(2-hydroxy-4,6-dimethylphenyl)-6-(pyrazin-2-yl)-2,5-dihydro-4H-pyrazolo[3,4-d]pyrimidin-4-one] | > 30 µM | 100% | 
Cc1cc(C)c(-n2cc3c(=O)[nH]c(OCC(F)(F)F)nc3n2)c(O)c1 [Example 55, 2-(2-hydroxy-4,6-dimethylphenyl)-6-(2,2,2-trifluoroethoxy)-2,5-dihydro-4H-pyrazolo[3,4-d]pyrimidin-4-one] | > 30 µM | 98% | 
CCOc1cc(F)c(-n2cc3c(=O)[nH]c(OCC)nc3n2)c(Br)c1 [Example 158, 2-(2-bromo-4-ethoxy-6-fluorophenyl)-6-ethoxy-2,5-dihydro-4H-pyrazolo [3,4-d]pyrimidin-4-one] | > 30 µM | 99% | 
CCOc1nc2nn(-c3c(C)cc(Br)cc3C(F)F)cc2c(=O)[nH]1 [Example 213, 2-[4-bromo-2-(difluoromethyl)-6-methylphenyl]-6-ethoxy-2,5-dihydro-4H-pyrazolo[3,4-d]pyrimidin-4-one] | > 30 µM | 104% | 
COCc1nc2nn(-c3c(C)cc(C)cc3O)cc2c(=O)[nH]1 [Example 28, 2-(2-hydroxy-4,6-dimethylphenyl)-6-(methoxymethyl)-2,5-dihydro-4H-pyrazolo[3,4-d]pyrimidin-4-one] | > 30 µM | 101% | 

The next lines start with results.

IC50 ([1]; Homo sapiens) | Compound | inhibition at 0.3 µM ([2]; Homo sapiens) | further results
> 30 µM | Cc1cc(C2CC2)cc(C)c1-n1cc2c(=O)[nH]c(C3CC(F)(F)C3)nc2n1 [Example 262, 2-(4-cyclopropyl-2,6-dimethylphenyl)-6-(3,3-difluorocyclobutyl)-2,5-dihydro-4H-pyrazolo[3,4-d]pyrimidin-4-one] |  | inhibition at 6 µM ([2]; Homo sapiens): 100%
> 30 µM | Cc1cc(C2CC2)cc(C(F)F)c1-n1cc2c(=O)[nH]c(C3(F)CC3)nc2n1 [Example 319, 2-[4-cyclopropyl-2-(difluoromethyl)-6-methylphenyl]-6-(1-fluorocyclopropyl)-2,5-dihydro-4H-pyrazolo[3,4-d]pyrimidin-4-one] |  | inhibition at 6 µM ([2]; Homo sapiens): 100%
> 30 µM | CCc1nc2nn(-c3c(C)cc(C4CC4)cc3C)cc2c(=O)[nH]1 [Example 241, 2-(4-cyclopropyl-2,6-dimethylphenyl)-6-ethyl-2,5-dihydro-4H-pyrazolo[3,4-d]pyrimidin-4-one] |  | inhibition at 6 µM ([2]; Homo sapiens): 101%
> 30 µM | COC[C@H](C)Oc1nc2nn(-c3c(F)cc(C4CC4)cc3C(F)F)cc2c(=O)[nH]1 [Example 205, 2-[4-cyclopropyl-2-(difluoromethyl)-6-fluorophenyl]-6-{[(2S)-1-methoxypropan-2-yl]oxy}-2,5-dihydro-4H-pyrazolo[3,4-d]pyrimidin-4-one] | 95% | 
> 30 µM | Cc1ccc(-n2cc3c(=O)[nH]c(OC4CCC4)nc3n2)c(C)c1 [Example 87, 6-(cyclobutyloxy)-2-(2,4-dimethylphenyl)-2,5-dihydro-4H-pyrazolo[3,4-d]pyrimidin-4-one] | 97% | 
> 30 µM | CCOc1nc2nn(-c3c(C)cc(C)cc3Cl)cc2c(=O)[nH]1 [Example 70, 2-(2-chloro-4,6-dimethylphenyl)-6-ethoxy-2,5-dihydro-4H-pyrazolo[3,4-d]pyrimidin-4-one] | 100% | 
> 30 µM | CCOc1nc2nn(-c3c(C)cc(C4CC4)nc3C(F)(F)F)cc2c(=O)[nH]1 [Example 303, 2-[6-cyclopropyl-4-methyl-2-(trifluoromethyl)pyridin-3-yl]-6-ethoxy-2,5-dihydro-4H-pyrazolo[3,4-d]pyrimidin-4-one] |  | inhibition at 6 µM ([2]; Homo sapiens): 100%
> 30 µM | Cc1ncc(-c2nc3nn(-c4c(C)cc(C5CC5)cc4C)cc3c(=O)[nH]2)o1 [Example 273, 2-(4-cyclopropyl-2,6-dimethylphenyl)-6-(2-methyl-1,3-oxazol-5-yl)-2,5-dihydro-4H-pyrazolo[3,4-d]pyrimidin-4-one] |  | inhibition at 6 µM ([2]; Homo sapiens): 99%
> 30 µM | CCOc1nc2nn(-c3c(F)cc(C4CC4)cc3C(F)F)cc2c(=O)[nH]1 [Example 110, 2-[4-cyclopropyl-2-(difluoromethyl)-6-fluorophenyl]-6-ethoxy-2,5-dihydro-4H-pyrazolo[3,4-d]pyrimidin-4-one] | 99% | 
> 30 µM | CCOc1nc2nn(-c3c(C)cc(C4(F)CC4)cc3C)cc2c(=O)[nH]1 [Example 245, 6-ethoxy-2-[4-(1-fluorocyclopropyl)-2,6-dimethylphenyl]-2,5-dihydro-4H-pyrazolo[3,4-d]pyrimidin-4-one] |  | inhibition at 6 µM ([2]; Homo sapiens): 101%
> 30 µM | CCOc1nc2nn(-c3c(F)cc(C4CC4)cc3Br)cc2c(=O)[nH]1 [Example 114, 2-(2-bromo-4-cyclopropyl-6-fluorophenyl)-6-ethoxy-2,5-dihydro-4H-pyrazolo[3,4-d]pyrimidin-4-one] | 98% | 
> 30 µM | Cc1cc(C2CC2)cc(C)c1-n1cc2c(=O)[nH]c(-c3cn(C)nn3)nc2n1 [Example 229, 2-(4-cyclopropyl-2,6-dimethylphenyl)-6-(1-methyl-1H-1,2,3-triazol-4-yl)-2,5-dihydro-4H-pyrazolo[3,4-d]pyrimidin-4-one] | 99% | 
> 30 µM | COCCOc1nc2nn(-c3c(C)cc(C4CC4)cc3CC(F)(F)F)cc2c(=O)[nH]1 [Example 231, 2-[4-cyclopropyl-2-methyl-6-(2,2,2-trifluoroethyl)phenyl]-6-(2-methoxyethoxy)-2,5-dihydro-4H-pyrazolo[3,4-d]pyrimidin-4-one] |  | inhibition at 6 µM ([2]; Homo sapiens): 90%
> 30 µM | Cc1cc(C2CC2)cc(C)c1-n1cc2c(=O)[nH]c(O[C@@H]3CCOC3)nc2n1 [Example 293, 2-(4-cyclopropyl-2,6-dimethylphenyl)-6-{[(3R)-oxolan-3-yl]oxy}-2,5-dihydro-4H-pyrazolo[3,4-d]pyrimidin-4-one] |  | inhibition at 6 µM ([2]; Homo sapiens): 99%

Source: patent publication US20260297092A1, “PYRAZOLOPYRIMIDINE DERIVATIVES AS INHIBITORS OF NLRP3” (Takeda Pharmaceutical Company Limited, priority 2023, published 2026)
